Source: paper PMC11347070 (Current Research in Toxicology, 2024)

What was measured:
[1] = test system: zebrafish embryos and larvae; test: Zebrafish embryo developmental toxicity assay; conditions: for BA heart / Coagulation/dead / Curved fin left / Curved fin right / Curved tail / Edema head / Edema pericard / Edema yolk / No hatching / Tissue deviation tail / Tot. malformed (excl. dead) / Tot. malformed (incl. dead) / Deviation eye / Elbow tail: 120 hpf
[2] = ref FDA, KEPPRA® (levetiracetam), n.d.; cited from earlier work
[3] = test system: zebrafish embryos and larvae; conditions: exposed to 500 µM ECA; 120 hpf

CCC(C(=O)O)N1CCCC1=O (stereo not drawn) [ECA, etiracetam carboxylic acid]
BA heart ([1]; ECA 1 µM, replicate 1): 0/20 | Coagulation/dead ([1]; ECA 1 µM, replicate 1): 0/20 | Curved fin left ([1]; ECA 1 µM, replicate 1): 0/20 | Curved fin right ([1]; ECA 1 µM, replicate 1): 0/20 | Curved tail ([1]; ECA 1 µM, replicate 1): 0/20 | Edema head ([1]; ECA 1 µM, replicate 1): 0/20 | Edema pericard ([1]; ECA 1 µM, replicate 1): 0/20 | Edema yolk ([1]; ECA 1 µM, replicate 1): 0/20 | No hatching ([1]; ECA 1 µM, replicate 1): 0/20 | Tissue deviation tail ([1]; ECA 1 µM, replicate 1): 0/20 | Tot. malformed (excl. dead) ([1]; ECA 1 µM, replicate 1): 0/20 | Tot. malformed (incl. dead) ([1]; ECA 1 µM, replicate 1): 0/20 | BA heart ([1]; ECA 1 µM, replicate 2): 0/19 | Coagulation/dead ([1]; ECA 1 µM, replicate 2): 1/20 | Curved fin left ([1]; ECA 1 µM, replicate 2): 0/19 | Curved fin right ([1]; ECA 1 µM, replicate 2): 0/19 | Curved tail ([1]; ECA 1 µM, replicate 2): 0/19 | Edema head ([1]; ECA 1 µM, replicate 2): 0/19 | Edema pericard ([1]; ECA 1 µM, replicate 2): 0/19 | Edema yolk ([1]; ECA 1 µM, replicate 2): 0/19 | No hatching ([1]; ECA 1 µM, replicate 2): 0/19 | Tissue deviation tail ([1]; ECA 1 µM, replicate 2): 0/19 | Tot. malformed (excl. dead) ([1]; ECA 1 µM, replicate 2): 0/19 | Tot. malformed (incl. dead) ([1]; ECA 1 µM, replicate 2): 1/20 | BA heart ([1]; ECA 10 µM, replicate 1): 0/18 | Coagulation/dead ([1]; ECA 10 µM, replicate 1): 2/20 | Curved fin left ([1]; ECA 10 µM, replicate 1): 0/18 | Curved fin right ([1]; ECA 10 µM, replicate 1): 0/18 | Curved tail ([1]; ECA 10 µM, replicate 1): 2/18 | Edema head ([1]; ECA 10 µM, replicate 1): 0/18 | Edema pericard ([1]; ECA 10 µM, replicate 1): 0/18 | Edema yolk ([1]; ECA 10 µM, replicate 1): 0/18 | No hatching ([1]; ECA 10 µM, replicate 1): 1/18 | Tissue deviation tail ([1]; ECA 10 µM, replicate 1): 0/18 | Tot. malformed (excl. dead) ([1]; ECA 10 µM, replicate 1): 2/18 | Tot. malformed (incl. dead) ([1]; ECA 10 µM, replicate 1): 4/20 | BA heart ([1]; ECA 10 µM, replicate 2): 0/20 | Coagulation/dead ([1]; ECA 10 µM, replicate 2): 0/20 | Curved fin left ([1]; ECA 10 µM, replicate 2): 0/20 | Curved fin right ([1]; ECA 10 µM, replicate 2): 0/20 | Curved tail ([1]; ECA 10 µM, replicate 2): 1/20 | Edema head ([1]; ECA 10 µM, replicate 2): 0/20 | Edema pericard ([1]; ECA 10 µM, replicate 2): 0/20 | Edema yolk ([1]; ECA 10 µM, replicate 2): 0/20 | No hatching ([1]; ECA 10 µM, replicate 2): 0/20 | Tissue deviation tail ([1]; ECA 10 µM, replicate 2): 0/20 | Tot. malformed (excl. dead) ([1]; ECA 10 µM, replicate 2): 1/20 | Tot. malformed (incl. dead) ([1]; ECA 10 µM, replicate 2): 1/20 | BA heart ([1]; ECA 100 µM, replicate 1): 0/18 | Coagulation/dead ([1]; ECA 100 µM, replicate 1): 2/20 | Curved fin left ([1]; ECA 100 µM, replicate 1): 0/18 | Curved fin right ([1]; ECA 100 µM, replicate 1): 0/18 | Curved tail ([1]; ECA 100 µM, replicate 1): 0/18 | Edema head ([1]; ECA 100 µM, replicate 1): 0/18 | Edema pericard ([1]; ECA 100 µM, replicate 1): 1/18 | Edema yolk ([1]; ECA 100 µM, replicate 1): 0/18 | No hatching ([1]; ECA 100 µM, replicate 1): 0/18 | Tissue deviation tail ([1]; ECA 100 µM, replicate 1): 1/18 | Tot. malformed (excl. dead) ([1]; ECA 100 µM, replicate 1): 1/18 | Tot. malformed (incl. dead) ([1]; ECA 100 µM, replicate 1): 3/20 | BA heart ([1]; ECA 100 µM, replicate 2): 1/20 | Coagulation/dead ([1]; ECA 100 µM, replicate 2): 0/20 | Curved fin left ([1]; ECA 100 µM, replicate 2): 1/20 | Curved fin right ([1]; ECA 100 µM, replicate 2): 1/20 | Curved tail ([1]; ECA 100 µM, replicate 2): 1/20 | Edema head ([1]; ECA 100 µM, replicate 2): 1/20 | Edema pericard ([1]; ECA 100 µM, replicate 2): 2/20 | Edema yolk ([1]; ECA 100 µM, replicate 2): 1/20 | No hatching ([1]; ECA 100 µM, replicate 2): 0/20 | Tissue deviation tail ([1]; ECA 100 µM, replicate 2): 1/20 | Tot. malformed (excl. dead) ([1]; ECA 100 µM, replicate 2): 2/20 | Tot. malformed (incl. dead) ([1]; ECA 100 µM, replicate 2): 2/20 | Coagulation/dead ([1]; ECA 250 µM, replicate 1): 0/20 | Curved tail ([1]; ECA 250 µM, replicate 1): 0/20 | Deviation eye ([1]; ECA 250 µM, replicate 1): 0/20 | Elbow tail ([1]; ECA 250 µM, replicate 1): 1/20 | Tissue deviation tail ([1]; ECA 250 µM, replicate 1): 1/20 | Tot. malformed (excl. dead) ([1]; ECA 250 µM, replicate 1): 2/20 | Tot. malformed (incl. dead) ([1]; ECA 250 µM, replicate 1): 2/20 | Coagulation/dead ([1]; ECA 250 µM, replicate 2): 0/20 | Curved tail ([1]; ECA 250 µM, replicate 2): 0/20 | Deviation eye ([1]; ECA 250 µM, replicate 2): 0/20 | Elbow tail ([1]; ECA 250 µM, replicate 2): 0/20 | Tissue deviation tail ([1]; ECA 250 µM, replicate 2): 0/20 | Tot. malformed (excl. dead) ([1]; ECA 250 µM, replicate 2): 0/20 | Tot. malformed (incl. dead) ([1]; ECA 250 µM, replicate 2): 0/20 | Coagulation/dead ([1]; ECA 500 µM, replicate 1): 0/20 | Curved tail ([1]; ECA 500 µM, replicate 1): 1/20 | Deviation eye ([1]; ECA 500 µM, replicate 1): 1/20 | Elbow tail ([1]; ECA 500 µM, replicate 1): 0/20 | Tissue deviation tail ([1]; ECA 500 µM, replicate 1): 1/20 | Tot. malformed (excl. dead) ([1]; ECA 500 µM, replicate 1): 2/20 | Tot. malformed (incl. dead) ([1]; ECA 500 µM, replicate 1): 2/20 | Coagulation/dead ([1]; ECA 500 µM, replicate 2): 0/20 | Curved tail ([1]; ECA 500 µM, replicate 2): 0/20 | Deviation eye ([1]; ECA 500 µM, replicate 2): 0/20 | Elbow tail ([1]; ECA 500 µM, replicate 2): 0/20 | Tissue deviation tail ([1]; ECA 500 µM, replicate 2): 1/20 | Tot. malformed (excl. dead) ([1]; ECA 500 µM, replicate 2): 1/20 | Tot. malformed (incl. dead) ([1]; ECA 500 µM, replicate 2): 1/20 | differences between test groups and embryo medium control group ([1]; all test concentrations, 24 to 120 hpf, Fisher Exact test): no statistically significant differences | teratogenicity in zebrafish larvae ([1]; concentrations up to 10,000 µM LTC and 500 µM ECA, likely due to limited uptake or lack of uptake): non-teratogenic | human metabolite of LTC, share of the administered dose [2]: 24 % of the administered dose | concentration of ECA in larvae [3]: no concentrations above the LOD could be detected | uptake of ECA [3]: no uptake of ECA could be observed
